Experimental data as given in US6376552B1, “Treatment of gallstones” (Knoll Pharmaceutical Company, priority 1999, dated 2002).

Test system: gallstones
Assay: administration to a patient during weight loss, development of gallstones
Type: in vivo, human
Conditions: 10 mg orally once daily in the morning while patient is losing weight
Protocol: Sibutramine 10 mg orally once daily is administered in the morning during the time a patient is losing weight.

Q: How did the development of gallstones turn out when `CC(C)CC(N(C)C)C1(c2ccc(Cl)cc2)CCC1` (stereo not shown) [Sibutramine, N,N-dimethyl-1-[1-(4-chlorophenyl)cyclobutyl]-3-methylbutylamine] was run?
A: Its development of gallstones is “does not develop gallstones”.
